Paper PMC11413503, “SCR‐7952, a highly selective MAT2A inhibitor, demonstrates synergistic antitumor activities in combination with the S‐adenosylmethionine‐competitive or the methylthioadenosine‐cooperative protein arginine methyltransferase 5 inhibitors in methylthioadenosine phosphorylase‐deleted tumors” (MedComm, 2024)

Assays:
[1] = biological target: ADRB2 (Homo sapiens, UniProt P07550); assay: Mini-profiling panel, GPCR; assay type: cell-based; conditions: GPCR Targets
[2] = biological target: INSR (Homo sapiens, UniProt P06213); assay: Mini-profiling panel, kinase; assay type: biochemical; conditions: Kinases; read-out: INSR Inhibitor IC50
[3] = test system: KP4 (MTAP-deleted pancreatic cancer cell line); assay: Combination proliferation assay; assay type: cell-based; conditions: KP4 cells, 8 days
Protocol: Cells were plated in 96‐well cell culture plates and allowed to attach overnight at 37°C in 5% CO2. […] The final concentration of DMSO was 0.1% in media. Cell proliferation was measured using CellTiter‐Glo Cell Viability Assay (Promega). The IC50 values were calculated using the GraphPad Prism 9. Drug combination effects were analyzed using Combenefit software.[45]

[4] = biological target: CCKAR (Homo sapiens, UniProt P32238); assay: Mini-profiling panel, GPCR; assay type: cell-based; conditions: GPCR Targets
[5] = biological target: T1, MAT2A (Homo sapiens, UniProt P31153); assay: SPR binding, single-cycle kinetics
T1 construct: purchased Pharmaron 210405‐HWR‐20210429
T1 sequence (P31153 whole entry): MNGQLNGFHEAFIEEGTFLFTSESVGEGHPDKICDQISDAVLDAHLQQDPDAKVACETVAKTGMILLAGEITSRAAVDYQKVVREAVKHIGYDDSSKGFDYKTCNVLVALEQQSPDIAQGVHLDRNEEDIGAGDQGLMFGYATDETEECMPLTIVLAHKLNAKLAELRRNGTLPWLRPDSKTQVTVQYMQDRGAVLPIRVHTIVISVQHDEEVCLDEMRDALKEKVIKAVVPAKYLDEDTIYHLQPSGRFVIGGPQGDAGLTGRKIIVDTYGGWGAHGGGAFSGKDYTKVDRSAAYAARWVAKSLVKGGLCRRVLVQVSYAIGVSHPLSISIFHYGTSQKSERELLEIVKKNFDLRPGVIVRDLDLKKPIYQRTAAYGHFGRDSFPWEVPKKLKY
Protocol: SPR experiments were performed using a BIAcore 8K instrument (Cytiva) at 25°C. A series S sensor chip SA (Cytiva) was docked into the system in 20 mM Bicine‐Na, pH 7.5, 100 mM KCl, 5 mM MgCl2, 0.1 mM TCEP, 0.05% (w/w) Tween‐20, and 2% (v/v) DMSO. The MAT2A protein was captured by Penta‐anti‐His antibody, and the affinity of SCR‐7952 was tested over a suitable dose–response range (12.5–200 nM) by single‐cycle kinetics. The kinetic parameters of SCR‐7952 on MAT2A were fitted via a 1:1 binding model.

[6] = biological target: human UGT1A1 (Homo sapiens, UniProt P22309); assay: UGT1A1 biochemical assay
[7] = biological target: HTR2A (Homo sapiens, UniProt P28223); assay: Mini-profiling panel, GPCR; assay type: cell-based
Chain of HTR2A (P28223 whole entry): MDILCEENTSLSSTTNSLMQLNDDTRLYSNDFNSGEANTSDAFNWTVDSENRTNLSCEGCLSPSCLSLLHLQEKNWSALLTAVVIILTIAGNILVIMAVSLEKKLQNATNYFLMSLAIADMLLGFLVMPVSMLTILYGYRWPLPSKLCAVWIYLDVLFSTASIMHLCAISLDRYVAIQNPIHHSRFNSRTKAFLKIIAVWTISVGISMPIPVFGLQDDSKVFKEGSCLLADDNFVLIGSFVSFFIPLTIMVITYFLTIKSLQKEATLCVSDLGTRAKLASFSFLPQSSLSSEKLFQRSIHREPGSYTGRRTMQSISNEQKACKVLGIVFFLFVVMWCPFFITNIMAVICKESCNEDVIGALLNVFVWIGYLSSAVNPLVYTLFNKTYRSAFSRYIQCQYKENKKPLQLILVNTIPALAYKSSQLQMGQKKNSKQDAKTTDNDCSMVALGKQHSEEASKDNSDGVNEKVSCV
Protocol: (§1) Further insight into selectivity was evaluated in a functional panel of 47 representative targets closely related to human life activities, including G protein‐coupled receptors, transporters, ion channels, kinases, nuclear hormone receptor targets, and nonkinase enzymes (Table S3).

[8] = biological target: DRD2S (Homo sapiens, UniProt P14416); assay: Mini-profiling panel, GPCR; assay type: cell-based
Protocol: as §1

[9] = biological target: ADRA2A (Homo sapiens, UniProt P08913); assay: Mini-profiling panel, GPCR; assay type: cell-based
Chain of ADRA2A (P08913 whole entry, species assumed): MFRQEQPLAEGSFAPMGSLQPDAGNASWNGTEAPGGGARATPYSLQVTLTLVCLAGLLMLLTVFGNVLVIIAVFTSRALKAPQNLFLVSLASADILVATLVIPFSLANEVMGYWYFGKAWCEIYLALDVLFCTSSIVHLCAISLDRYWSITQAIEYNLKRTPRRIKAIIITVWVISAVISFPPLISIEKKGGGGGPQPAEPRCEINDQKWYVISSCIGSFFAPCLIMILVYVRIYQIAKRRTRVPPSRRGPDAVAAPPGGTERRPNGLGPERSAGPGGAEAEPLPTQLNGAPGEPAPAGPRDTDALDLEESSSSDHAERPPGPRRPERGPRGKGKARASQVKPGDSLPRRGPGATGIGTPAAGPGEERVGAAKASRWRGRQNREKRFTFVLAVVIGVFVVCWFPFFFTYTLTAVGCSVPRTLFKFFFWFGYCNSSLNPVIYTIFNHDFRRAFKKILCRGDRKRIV
Protocol: as §1

[10] = biological target: CHRM2 (Homo sapiens, UniProt P08172); assay: Mini-profiling panel, GPCR; assay type: cell-based
Chain of CHRM2 (P08172 whole entry, species assumed): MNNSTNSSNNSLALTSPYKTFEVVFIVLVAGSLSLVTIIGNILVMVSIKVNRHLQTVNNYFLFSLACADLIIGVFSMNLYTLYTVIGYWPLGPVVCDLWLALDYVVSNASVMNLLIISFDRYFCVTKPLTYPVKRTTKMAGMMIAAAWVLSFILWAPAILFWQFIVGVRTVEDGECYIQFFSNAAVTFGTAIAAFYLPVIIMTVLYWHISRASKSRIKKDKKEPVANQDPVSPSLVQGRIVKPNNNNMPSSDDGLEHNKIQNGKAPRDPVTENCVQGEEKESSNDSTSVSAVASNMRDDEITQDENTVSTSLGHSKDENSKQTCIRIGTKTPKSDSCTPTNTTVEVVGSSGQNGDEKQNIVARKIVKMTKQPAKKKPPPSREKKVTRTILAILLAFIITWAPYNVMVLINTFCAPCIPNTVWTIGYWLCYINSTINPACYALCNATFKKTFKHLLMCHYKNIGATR
Protocol: as §1

[11] = biological target: HTR1B (Homo sapiens, UniProt P28222); assay: Mini-profiling panel, GPCR; assay type: cell-based
Chain of HTR1B (P28222 whole entry, species assumed): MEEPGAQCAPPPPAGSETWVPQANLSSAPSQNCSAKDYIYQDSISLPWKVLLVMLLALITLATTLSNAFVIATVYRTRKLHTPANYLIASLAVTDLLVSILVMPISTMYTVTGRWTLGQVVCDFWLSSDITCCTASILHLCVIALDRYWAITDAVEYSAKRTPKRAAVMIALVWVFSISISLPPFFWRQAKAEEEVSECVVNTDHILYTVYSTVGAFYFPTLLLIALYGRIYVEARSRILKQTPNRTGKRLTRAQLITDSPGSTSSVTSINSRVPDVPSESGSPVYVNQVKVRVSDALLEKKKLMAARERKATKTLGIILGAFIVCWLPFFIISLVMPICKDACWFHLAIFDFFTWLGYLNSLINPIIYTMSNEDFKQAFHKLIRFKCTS
Protocol: as §1

[12] = biological target: HTR1A (Homo sapiens, UniProt P08908); assay: Mini-profiling panel, GPCR; assay type: cell-based
Chain of HTR1A (P08908 whole entry, species assumed): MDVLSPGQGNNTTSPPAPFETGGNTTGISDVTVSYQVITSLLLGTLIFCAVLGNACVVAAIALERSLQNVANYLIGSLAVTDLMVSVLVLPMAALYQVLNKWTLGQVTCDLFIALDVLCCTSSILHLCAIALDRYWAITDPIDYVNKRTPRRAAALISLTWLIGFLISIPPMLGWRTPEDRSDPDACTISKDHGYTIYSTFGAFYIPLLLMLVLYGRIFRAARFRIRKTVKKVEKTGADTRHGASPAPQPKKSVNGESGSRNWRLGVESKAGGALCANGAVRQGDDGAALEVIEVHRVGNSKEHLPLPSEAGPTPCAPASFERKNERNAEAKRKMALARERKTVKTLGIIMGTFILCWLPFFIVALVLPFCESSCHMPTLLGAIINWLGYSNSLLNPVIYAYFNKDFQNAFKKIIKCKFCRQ
Protocol: as §1

[13] = biological target: ADRA1A (Homo sapiens, UniProt P35348); assay: Mini-profiling panel, GPCR; assay type: cell-based
Chain of ADRA1A (P35348 whole entry): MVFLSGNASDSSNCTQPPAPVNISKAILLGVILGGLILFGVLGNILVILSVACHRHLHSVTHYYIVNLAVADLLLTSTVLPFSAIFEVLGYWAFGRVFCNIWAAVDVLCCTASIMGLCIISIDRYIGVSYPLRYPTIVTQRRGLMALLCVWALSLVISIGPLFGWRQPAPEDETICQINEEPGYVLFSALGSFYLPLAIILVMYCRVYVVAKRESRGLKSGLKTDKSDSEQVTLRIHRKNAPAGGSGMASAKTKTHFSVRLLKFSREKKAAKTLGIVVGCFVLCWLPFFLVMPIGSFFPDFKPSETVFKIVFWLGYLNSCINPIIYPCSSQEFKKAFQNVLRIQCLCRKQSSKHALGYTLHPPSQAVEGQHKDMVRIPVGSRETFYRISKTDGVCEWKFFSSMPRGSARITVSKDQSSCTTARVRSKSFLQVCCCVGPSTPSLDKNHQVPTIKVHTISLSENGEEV
Protocol: as §1

[14] = biological target: OPRK1 (Homo sapiens, UniProt P41145); assay: Mini-profiling panel, GPCR; assay type: cell-based
Chain of OPRK1 (P41145 whole entry, species assumed): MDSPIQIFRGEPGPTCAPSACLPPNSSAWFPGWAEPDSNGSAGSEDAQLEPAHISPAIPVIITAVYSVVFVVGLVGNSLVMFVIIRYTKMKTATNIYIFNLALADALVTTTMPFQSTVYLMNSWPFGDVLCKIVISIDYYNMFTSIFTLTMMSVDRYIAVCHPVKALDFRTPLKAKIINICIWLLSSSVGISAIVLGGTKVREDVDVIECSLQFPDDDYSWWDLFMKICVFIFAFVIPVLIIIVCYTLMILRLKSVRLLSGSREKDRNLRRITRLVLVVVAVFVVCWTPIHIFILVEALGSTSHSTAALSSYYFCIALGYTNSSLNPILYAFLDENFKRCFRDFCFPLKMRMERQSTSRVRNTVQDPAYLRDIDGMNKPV
Protocol: as §1

[15] = biological target: ADORA2A (Homo sapiens, UniProt P29274); assay: Mini-profiling panel, GPCR; assay type: cell-based; conditions: GPCR Targets
Chain of ADORA2A (P29274 whole entry, species assumed): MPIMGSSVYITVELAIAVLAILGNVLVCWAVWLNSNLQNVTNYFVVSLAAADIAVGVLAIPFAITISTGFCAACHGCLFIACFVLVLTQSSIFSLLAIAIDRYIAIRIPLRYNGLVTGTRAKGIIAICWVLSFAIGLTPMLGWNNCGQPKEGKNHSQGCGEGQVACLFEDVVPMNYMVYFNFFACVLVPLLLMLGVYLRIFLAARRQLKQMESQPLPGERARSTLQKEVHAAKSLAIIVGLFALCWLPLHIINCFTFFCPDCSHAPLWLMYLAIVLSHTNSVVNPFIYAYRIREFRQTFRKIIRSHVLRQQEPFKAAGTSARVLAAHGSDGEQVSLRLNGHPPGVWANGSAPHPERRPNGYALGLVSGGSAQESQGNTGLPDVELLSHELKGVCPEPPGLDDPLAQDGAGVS

[16] = biological target: HRH2 (Homo sapiens, UniProt P25021); assay: Mini-profiling panel, GPCR; assay type: cell-based; conditions: GPCR Targets
Chain of HRH2 (P25021 whole entry, species assumed): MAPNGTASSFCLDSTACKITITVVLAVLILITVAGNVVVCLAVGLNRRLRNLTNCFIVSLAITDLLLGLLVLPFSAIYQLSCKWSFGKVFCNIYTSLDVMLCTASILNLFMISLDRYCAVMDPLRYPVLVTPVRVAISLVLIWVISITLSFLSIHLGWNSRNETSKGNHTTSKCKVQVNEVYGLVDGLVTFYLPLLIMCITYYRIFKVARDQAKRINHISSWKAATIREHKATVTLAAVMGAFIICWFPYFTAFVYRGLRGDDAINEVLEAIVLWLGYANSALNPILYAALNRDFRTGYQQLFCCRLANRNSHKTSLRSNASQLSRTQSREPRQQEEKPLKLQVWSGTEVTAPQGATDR

[17] = Plasma bilirubin in mice after oral treatment; assay type: in vivo; conditions: SCR-7952 1.0 mg/kg, 14 days oral treatment, 2 h after final dose
[18] = biological target: CAV1.2 (Homo sapiens, UniProt Q13936); assay: cell-based
[19] = test system: HCT116 MTAP−/− subcutaneous xenograft; assay: Xenograft efficacy study, monotherapy; assay type: in vivo, mice
Protocol: An efficacy study in an HCT116 MTAP ^−/− subcutaneous xenograft mouse model was performed to evaluate the antitumor effect of SCR‐7952, with once daily (q.d.) oral dosing of 0.25, 0.5, 1.0, or 3.0 mg/kg, respectively.
Nu/Nu female mice (6–12 weeks old; Beijing Vital River Laboratory Animal Technology Co., Ltd.) were used for in vivo xenograft studies. All experimental procedures involving animals and their care were in accordance with the State Council Regulations for Laboratory Animal Management (Enacted in 1988) and approved by the Institutional Animal Care and Use Committee of Jiangsu Simcere Pharmaceutical Co., Ltd. (IACUC; Approval No. AP‐056).
Subcutaneous injections of HCT116 MTAP ^−/− cells were performed (5 × 10^6 cells in 100 µL) into Nu/Nu female mice. Mice were observed daily for the development of tumors. Six days after tumor implantation, mice were randomly distributed into different groups. SCR‐7952, AG‐270, JNJ‐64619178, or vehicle (water with 5% N‐methylpyrrolidone and 10% solutol HS‐15) were daily administrated by oral gavage. Tumor volumes and body weights were recorded three times per week. Tumor volumes were measured in two dimensions using a caliper, and the volume was expressed in mm^3 using the formula: V = (L × W × W)/2, where V is tumor volume, L is tumor length (the longest tumor dimension), and W is tumor width (perpendicular to L). The tumor growth inhibition rate (TGI%) of each dosing group was calculated according to the following formula: %TGI = (1 − (V t(treatment group) − V 0(treatment group))/(V t(vehicle group) − V 0(vehicle group))) × 100%, where V t is average tumor volume of a dosing group on a specific day, V 0 is average tumor volume of a dosing group on the initial day. At the end of the study, plasma and tumor tissues were collected and stored at −80°C for further measurement.

Chain of ADRB2 (P07550 whole entry, species assumed): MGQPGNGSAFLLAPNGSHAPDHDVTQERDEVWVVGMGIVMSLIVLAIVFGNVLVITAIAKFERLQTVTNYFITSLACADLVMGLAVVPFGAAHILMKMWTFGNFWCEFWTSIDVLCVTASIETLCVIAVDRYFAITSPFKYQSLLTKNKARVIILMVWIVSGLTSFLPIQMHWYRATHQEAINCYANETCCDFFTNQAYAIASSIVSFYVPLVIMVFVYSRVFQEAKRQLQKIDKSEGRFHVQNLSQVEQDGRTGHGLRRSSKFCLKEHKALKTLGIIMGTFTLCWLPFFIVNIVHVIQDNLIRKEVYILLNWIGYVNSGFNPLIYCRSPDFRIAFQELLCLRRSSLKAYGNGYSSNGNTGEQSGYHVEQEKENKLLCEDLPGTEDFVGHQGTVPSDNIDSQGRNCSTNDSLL

## Cn1cnc2c(=O)n(-c3cccnc3C3CC3)c3cc(Cl)ccc3c21 [SCR‐7952, 7‐chloro‐5‐(2‐cyclopropylpyridin‐3‐yl)‐1‐methyl‐1,5‐dihydro‐4H‐imidazo[4,5‐c]quinolin‐4‐one]
[1]; read-out: ADRB2 Agonism EC50
  EC50: > 10 µM
[1]; read-out: ADRB2 Antagonism IC50
  IC50: > 10 µM
[2]
  IC50: > 10 µM
[3]
  interaction in combination with JNJ-64619178 on KP4: synergistic effect was also observed
[4]; read-out: CCKAR Agonism EC50
  EC50: > 10 µM
[4]; read-out: CCKAR Antagonism IC50
  IC50: > 10 µM
[5]; read-out: dissociation equilibrium constant KD
  Kd: 0.00056 µM
[5]; single-cycle kinetic model, read-out: association rate constant ka
  kon: 86700 M⁻¹ s⁻¹
[5]; single-cycle kinetic model, read-out: dissociation rate constant kd
  koff: 4.83e-05 s⁻¹
[6]
  IC50: > 100 µM
[7]
  EC50: > 10 µM
  IC50: > 10 µM
[8]
  EC50: > 10 µM
  IC50: > 10 µM
[9]
  EC50: > 10 µM
  IC50: > 10 µM
[10]
  EC50: > 10 µM
  IC50: > 10 µM
[11]
  EC50: > 10 µM
  IC50: > 10 µM
[12]
  EC50: > 10 µM
  IC50: > 10 µM
[13]
  EC50: > 10 µM
  IC50: > 10 µM
[14]
  EC50: > 10 µM
  IC50: > 10 µM
[15]; read-out: ADORA2A Agonism EC50
  EC50: > 10 µM
[15]; read-out: ADORA2A Antagonism IC50
  IC50: > 10 µM
[16]; read-out: HRH2 Agonism EC50
  EC50: > 10 µM
[16]; read-out: HRH2 Antagonism IC50
  IC50: > 10 µM
[17]
  effect on mice plasma levels of bilirubin: no significant effect
[18]
  IC50: > 10 µM
[19]; SCR-7952 0.5 mg/kg oral q.d.
  TGI: 60.0%
[19]; SCR-7952 1 mg/kg oral q.d.
  TGI: 62.7%
[19]; SCR-7952 3.0 mg/kg oral q.d.
  TGI: 82.9%
